Publication PMC10511495, “Dermato-cosmeceutical properties of Pseudobombax ellipticum (Kunth) Dugand: Chemical profiling, in vitro and in silico studies” (Saudi Pharmaceutical Journal : SPJ, 2023)

Experiments:
[1] = target: T1, Collagenase from Clostridium histolyticum (ChC); assay: FALGPA hydrolysis, absorbance at […] nm; format: biochemical, Hathewaya histolytica; conditions: 2 mM FALGPA solution; 50 mM Tricine, 400 mM NaCl, 10 mM CaCl2, pH 7.5; 15 min preincubation
T1 construct: gene colG; docking used another collagenase (MMP)

[2] = target: T2, Porcine pancreatic elastase (Sus scrofa, UniProt P00772); assay: chromogenic peptide hydrolysis, absorbance at […] nm; format: biochemical; conditions: 0.8 mM N-succinyl-Ala-Ala-Ala-p-nitroanilide; 15 min preincubation
T2 construct: gene CELA1; native pancreatic enzyme preparation; docking used another elastase (Zn metalloprotease, MMP12)
T2 sequence (P00772 27-266): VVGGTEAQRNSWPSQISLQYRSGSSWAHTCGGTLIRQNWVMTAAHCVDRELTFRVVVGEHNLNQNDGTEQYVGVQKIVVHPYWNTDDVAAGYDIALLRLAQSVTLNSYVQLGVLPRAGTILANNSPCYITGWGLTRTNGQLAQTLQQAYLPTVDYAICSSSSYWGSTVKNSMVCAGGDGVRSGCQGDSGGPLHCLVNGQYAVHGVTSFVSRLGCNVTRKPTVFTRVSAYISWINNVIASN

Parameter / Elastase [2] [µg/mL] | Compound | Parameter / Collagenase [1] [µg/mL]
 | O=c1c(O)c(-c2ccc(O)c(O)c2)oc2cc(O)cc(O)c12 [Quercetin] | 24.83 ± 1.8
21.60 ± 0.9 | O=c1cc(CO)occ1O [Kojic acid] | 
